Test [1] concerns the target T1, recombinant ASK1 (Homo sapiens, UniProt Q99683).
T1 construct: purchased Carna Biosciences
Briefly: ASK1 Biochemical Assay (HTRF KinEASE-STK S3). The note with it: ATP 100 μM; read-out: Biochemical Assay IC50. The procedure, abridged:
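Recombinant ASK1 (5 ng) preincubated with compound 1 h at 23 °C in MOPS pH 7 buffer with Mg-acetate, DTT, NP40, glycerol, BSA and 1% DMSO. Inhibition calculated against vehicle after substrate-blank subtraction.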

For test [2], the target named is T2, Human ASK1 (Homo sapiens, UniProt Q99683).
T2 construct: expressed in transfected cells; host or cells: HEK293T-AP1
T2 sequence (Q99683 1-1374): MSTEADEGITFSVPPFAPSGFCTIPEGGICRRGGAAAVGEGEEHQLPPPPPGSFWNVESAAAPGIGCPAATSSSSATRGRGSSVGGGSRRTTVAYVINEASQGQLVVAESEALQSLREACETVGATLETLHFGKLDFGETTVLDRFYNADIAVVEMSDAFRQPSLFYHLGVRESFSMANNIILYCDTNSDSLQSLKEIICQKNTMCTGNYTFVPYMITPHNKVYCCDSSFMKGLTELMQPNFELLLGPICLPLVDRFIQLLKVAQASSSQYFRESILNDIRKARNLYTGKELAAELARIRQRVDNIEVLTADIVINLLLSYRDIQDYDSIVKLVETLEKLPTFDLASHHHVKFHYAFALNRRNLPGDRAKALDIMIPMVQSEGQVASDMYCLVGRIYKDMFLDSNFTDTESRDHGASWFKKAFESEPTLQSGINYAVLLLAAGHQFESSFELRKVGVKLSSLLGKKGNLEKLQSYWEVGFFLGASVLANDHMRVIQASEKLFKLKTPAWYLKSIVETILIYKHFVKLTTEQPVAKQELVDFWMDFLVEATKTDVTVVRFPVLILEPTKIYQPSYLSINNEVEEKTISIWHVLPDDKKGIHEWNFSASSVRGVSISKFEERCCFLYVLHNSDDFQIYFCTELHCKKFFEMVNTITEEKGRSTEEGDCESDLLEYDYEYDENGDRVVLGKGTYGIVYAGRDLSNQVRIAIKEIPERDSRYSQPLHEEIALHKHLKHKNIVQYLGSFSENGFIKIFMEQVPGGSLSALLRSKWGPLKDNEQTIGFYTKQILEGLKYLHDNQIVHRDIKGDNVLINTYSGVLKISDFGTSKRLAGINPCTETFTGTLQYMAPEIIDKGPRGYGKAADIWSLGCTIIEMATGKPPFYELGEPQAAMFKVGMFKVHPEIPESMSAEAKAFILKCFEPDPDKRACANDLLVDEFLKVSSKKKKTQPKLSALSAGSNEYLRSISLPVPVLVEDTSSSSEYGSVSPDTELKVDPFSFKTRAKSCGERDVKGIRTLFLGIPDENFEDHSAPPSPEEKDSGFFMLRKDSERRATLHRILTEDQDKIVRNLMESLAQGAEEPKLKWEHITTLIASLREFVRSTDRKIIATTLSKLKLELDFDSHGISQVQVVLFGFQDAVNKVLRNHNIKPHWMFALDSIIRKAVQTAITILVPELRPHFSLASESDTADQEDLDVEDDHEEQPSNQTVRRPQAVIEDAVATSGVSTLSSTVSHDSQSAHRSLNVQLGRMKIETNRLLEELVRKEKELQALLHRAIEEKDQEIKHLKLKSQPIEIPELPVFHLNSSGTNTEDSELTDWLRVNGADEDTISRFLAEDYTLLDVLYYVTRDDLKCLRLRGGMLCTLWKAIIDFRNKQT
The test can be described thus: ASK1 Cell Based Assay (phospho p38 read out in hASK1 transfected HEK293T-AP1 cells). Conditions: HEK293T-AP1 cells, 1 mM hydrogen peroxide, phospho p38; read-out: Cell Based Assay IC50. The procedure, abridged: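 HEK293T-AP1 cells transfected with hASK1, after 24 h treated with compounds for 24 h (0.2% DMSO), then stimulated with 1 mM H2O2 for 1 h with compounds present.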

The source of these data is patent US20220332700A1, “NOVEL APOPTOSIS SIGNAL-REGULATING KINASE 1 INHIBITORS” (MANKIND PHARMA LTD, priority 2019, published 2022).

Broadly, the IC50 is the midpoint of a concentration-inhibition curve. Regarding `CC(C)n1cnnc1-c1cccc(N2CCN(c3ccc(S(C)(=O)=O)c(C4CC4)c3)C2=O)n1` [Example 1059, 1-(3-cyclopropyl-4-(methylsulfonyl)phenyl)-3-(6-(4-isopropyl-4H-1,2,4-triazol-3-yl)pyridin-2-yl)imidazolidin-2-one], the half-maximal inhibitory concentration (IC50) in test [1] is less than 100 nM; in test [2], greater than 1000 nM.

On to `CC(n1cnnc1-c1cccc(N2CCN(c3ccc(S(C)(=O)=O)cc3)C2=O)n1)C(F)(F)F` (stereo not drawn) [Example 1061, 1-(6-(4-(1,1,1-trifluoropropan-2-yl)-4H-1,2,4-triazol-3-yl)pyridin-2-yl)-3-(4-(methylsulfonyl)phenyl)imidazolidin-2-one], for which the results for the half-inhibitory concentration (IC50) in test [1] and in test [2] were less than 100 nM and greater than 1000 nM, respectively.

For the compound `CC(C)n1cnnc1-c1cccc(N2CCN(c3ccc(S(C)(=O)=O)c(N4CCCCC4)c3)C2=O)n1` [Example 1063, 1-(6-(4-isopropyl-4H-1,2,4-triazol-3-yl)pyridin-2-yl)-3-(4-(methylsulfonyl)-3-(piperidin-1-yl)phenyl)imidazolidin-2-one], the IC50 in test [1] is less than 100 nM; in test [2], greater than 1000 nM.

Take `CC(C)n1cnnc1-c1cccc(N2CCN(c3ccc(C4CCOCC4)cc3)C2=O)n1` [Example 1066, 1-(4-(tetrahydro-2H-pyran-4-yl)phenyl)-3-(6-(4-isopropyl-4H-1,2,4-triazol-3-yl)pyridin-2-yl)imidazolidin-2-one]: the IC50 in test [1] was less than 100 nM; in test [2], greater than 1000 nM.

On to `CC(C)n1cnnc1-c1cccc(N2CCN(c3ccc(N4CCC(O)CC4)cc3)C2=O)n1` [Example 1067, 1-(4-(4-hydroxypiperidin-1-yl)phenyl)-3-(6-(4-isopropyl-4H-1,2,4-triazol-3-yl)pyridin-2-yl)imidazolidin-2-one], for which the results for the IC50 in test [1] and in test [2] were less than 100 nM and greater than 100 nM, respectively.

Consider `CC1COCC(=O)N1c1ccc(N2CCN(c3cccc(-c4nncn4C(C)C)n3)C2=O)cc1` (stereo not drawn) [Example 1068, 4-(4-(3-(6-(4-isopropyl-4H-1,2,4-triazol-3-yl)pyridin-2-yl)-2-oxoimidazolidin-1-yl)phenyl)-5-methylmorpholin-3-one], for which the IC50 in test [1] was less than 100 nM; in test [2] it was greater than 100 nM.

As to `CC1COCCN1c1ccc(N2CCN(c3cccc(-c4nncn4C(C)C)n3)C2=O)cc1` (stereo not drawn) [Example 1069, 1-(6-(4-isopropyl-4H-1,2,4-triazol-3-yl)pyridin-2-yl)-3-(4-(3-methylmorpholino)phenyl)imidazolidin-2-one], the values for the IC50 in test [1] and in test [2] were less than 100 nM and greater than 100 nM, respectively.

On to `CC(C)n1cnnc1-c1cccc(N2CCN(c3ccc(S(=O)(=O)N4CCOCC4)cc3)C2=O)n1` [Example 1073, 1-(6-(4-isopropyl-4H-1,2,4-triazol-3-yl)pyridin-2-yl)-3-(4-(morpholinosulfonyl)phenyl)imidazolidin-2-one], for which the IC50 was less than 100 nM in test [1] and greater than 100 nM in test [2].

For the compound `CC(C)n1cnnc1-c1cccc(N2CCN(c3ccc(N4CC5(COC5)C4)cc3)C2=O)n1` [Example 1074, 1-(4-(2-oxa-6-azaspiro[3.3]heptan-6-yl)phenyl)-3-(6-(4-isopropyl-4H-1,2,4-triazol-3-yl)pyridin-2-yl)imidazolidin-2-one], the IC50 in test [1] was less than 100 nM; in test [2], greater than 100 nM.

Turning to `CC(C)n1cnnc1-c1cccc(N2CCN(c3ccc(N4CCOCC4)c(F)c3)C2=O)n1` [Example 1075, 1-(3-fluoro-4-morpholinophenyl)-3-(6-(4-isopropyl-4H-1,2,4-triazol-3-yl)pyridin-2-yl)imidazolidin-2-one], the IC50 was less than 100 nM in test [1] and greater than 1000 nM in test [2].

Take `CC1CN(c2ccc(N3CCN(c4cccc(-c5nncn5C(C)C)n4)C3=O)cc2)C(=O)CO1` (stereo not drawn) [Example 1076, 4-(4-(3-(6-(4-isopropyl-4H-1,2,4-triazol-3-yl)pyridin-2-yl)-2-oxoimidazolidin-1-yl)phenyl)-6-methylmorpholin-3-one]: the IC50 in test [1] is less than 100 nM; in test [2], greater than 1000 nM.

In the case of `CC(C)n1cnnc1-c1cccc(N2CCN(c3ccc(C(=O)N4CCOCC4)cc3)C2=O)n1` [Example 1077, 1-(6-(4-isopropyl-4H-1,2,4-triazol-3-yl)pyridin-2-yl)-3-(4-(morpholine-4-carbonyl)phenyl)imidazolidin-2-one], the IC50 in test [1] is less than 100 nM; in test [2] it was greater than 100 nM.

Take `CC1CN(c2ccc(N3CCN(c4cccc(-c5nncn5C(C)C)n4)C3=O)cc2)CCO1` (stereo not drawn) [Example 1078, 1-(6-(4-isopropyl-4H-1,2,4-triazol-3-yl)pyridin-2-yl)-3-(4-(2-methylmorpholino)phenyl)imidazolidin-2-one]: the IC50 was less than 100 nM in test [1] and greater than 100 nM in test [2].

Turning to `CC(C)n1cnnc1-c1cccc(N2CCN(c3ccc(CN4CCOCC4)cc3)C2=O)n1` [Example 1080, 1-(6-(4-isopropyl-4H-1,2,4-triazol-3-yl)pyridin-2-yl)-3-(4-(morpholinomethyl)phenyl)imidazolidin-2-one], the IC50 in test [1] was less than 100 nM; in test [2] it was greater than 1000 nM.

As to `CC(C)n1cnnc1-c1cccc(N2CCN(c3ccc(NC4CCOCC4)cc3)C2=O)n1` [Example 1081, 1-(6-(4-isopropyl-4H-1,2,4-triazol-3-yl)pyridin-2-yl)-3-(4-(tetrahydro-2H-pyran-4-ylamino)phenyl)imidazolidin-2-one], the IC50 in test [1] is less than 50 nM; in test [2] it was greater than 100 nM.

For the compound `CC(C)n1cnnc1-c1cccc(N2CCN(c3ccc(C(O)C(F)(F)F)cc3)C2=O)n1` (stereo not drawn) [Example 1083, 1-(4-(2,2,2-trifluoro-1-hydroxyethyl)phenyl)-3-(6-(4-isopropyl-4H-1,2,4-triazol-3-yl)pyridin-2-yl)imidazolidin-2-one], the IC50 was less than 100 nM in test [1] and greater than 1000 nM in test [2].

On to `CC(C)n1cnnc1-c1cccc(N2CCN(c3ccc(C4CCN(S(C)(=O)=O)CC4)cc3)C2=O)n1` [Example 1084, 1-(6-(4-isopropyl-4H-1,2,4-triazol-3-yl)pyridin-2-yl)-3-(4-(1-(methylsulfonyl)piperidin-4-yl)phenyl)imidazolidin-2-one], for which the IC50 in test [1] was less than 100 nM; in test [2] it was greater than 1000 nM.

For the compound `CC(C)n1cnnc1-c1cccc(N2CCN(c3ccc(N4[C@H](C)COC[C@@H]4C)cc3)C2=O)n1` [Example 1085, 1-(6-(4-isopropyl-4H-1,2,4-triazol-3-yl)pyridin-2-yl)-3-(4-((3R,5S)-3,5-dimethylmorpholino)phenyl)imidazolidin-2-one], the IC50 is less than 100 nM in test [1] and greater than 100 nM in test [2].

For the compound `CC(C)n1cnnc1-c1cccc(N2CCN(c3ccc(N4CCC(C#N)CC4)cc3)C2=O)n1` [Example 1087, 1-(4-(3-(6-(4-isopropyl-4H-1,2,4-triazol-3-yl)pyridin-2-yl)-2-oxoimidazolidin-1-yl)phenyl)piperidine-4-carbonitrile], the IC50 in test [1] was less than 100 nM; in test [2] it was greater than 100 nM.

As for `CC(C)NC1CN(c2ccc(N3CCN(c4cccc(-c5nncn5C(C)C)n4)C3=O)cc2)C1` [Example 1088, 1-(6-(4-isopropyl-4H-1,2,4-triazol-3-yl)pyridin-2-yl)-3-(4-(3-(isopropylamino)azetidin-1-yl)phenyl)imidazolidin-2-one], the IC50 in test [1] was less than 100 nM; in test [2] it was greater than 1000 nM.

In the case of `CC(C)n1cnnc1-c1cccc(N2CCN(c3ccc(N4CC(O)C4)cc3)C2=O)n1` [Example 1090, 1-(4-(3-hydroxyazetidin-1-yl)phenyl)-3-(6-(4-isopropyl-4H-1,2,4-triazol-3-yl)pyridin-2-yl)imidazolidin-2-one], the IC50 in test [1] is less than 100 nM; in test [2] it was greater than 1000 nM.
